Measured values from US11708391B2, “Rapaglutins, novel inhibitors of GLUT and use thereof” (The Johns Hopkins University, priority 2016, dated 2023).
“Also recorded” adds a separate entry of the source. Like-named read-outs stand apart in the source and are kept apart here.

Tests used:
mTOR = experiment: Western blot, mTOR / S6K in HEK 293T; type: cell-based
Source text: (§1) FIGS. 7A-7B. (a) A18 activates AMPK and inhibits S6K in HEK 293T cells. […] (b) A18 and E11 activate AMPK and inhibit S6K in HEK 293T cells.
(§2) Whether A18 and E11 treatment affect key cell growth signaling proteins was examined next. […] But it has no effects on the phosphorylation of ERK, AKT or JNK (FIG. 7). As previously reported, AMPK is likely to act as the key link between the ATP reduction and the subsequent cancer cell inhibition. (FIGS. 7 and 23-25). Based on the data reported here, the working model for A18 and E11 was proposed as outlined in FIG. 8. […] These led to upregulation of phosphorylation of AMPK and downregulation of phosphorylation of S6K. […] (FIG. 8)

[1] = system: DLD-1 GLUT1 gene knock out cells; experiment: alamar blue cell viability assay, DLD-1 GLUT1 knock out; type: cell-based
Source text: FIGS. 19A-19C. E11 is a specific inhibitor of Glut1. (a)(b) Inhibition of cell proliferation in A549, DLD-1 wild type and Glut1 knock out cells by A18 and E11. (c) Potency of A18 and E11 against the alamar blue assay in A549, DLD-1 wild type and Glut1 knock out cells.
(§3) Up to now, at least 14 different isoforms of GLUTs have been identified in human cells. It was then asked whether A18 and E11 are specific inhibitors of GLUT1. To answer this question, colon cancer DLD-1 wild type and GLUT1 gene knock out cell lines were chosen as a cell model (FIG. 4a). […] GLUTs that are most relevant to cancer are Glut1 and Glut3. To obtain additional evidence, Glut1 and Glut3 in HEK 293T cells were overexpressed and an alamar blue cell viability assay was performed again. […] (see FIGS. 4, 19, 20, 26; Table 4).

NFAT = NFAT reporter gene assay; type: cell-based
Source text: (§4) FIGS. 28A-28D. (a) A18 and E11 inhibit NFAT and A18, but not E11, stimulates SRE reporter gene signal. (b) E11 inhibits NFAT, NF-κB and IL2, but not MEF-2 or AP-1 pathways, in Jurkat T cells. (c) Glucose inhibitor stimulates SRE reporter gene signal.
(§5) Both A18 and E11 have shown immunosuppressive activity, blocking NFAT reporter gene activation and IL-2 production (see e.g., FIG. 28). As such, they can be used as immunosuppressive agents that have applications in treating organ transplantation rejection and all kinds of autoimmune diseases. […]

[2] = system: DLD-1 GLUT1 gene knock out cells; experiment: 2-deoxy-D-[3H] glucose uptake in DLD-1 GLUT1 knock out cells; type: cell-based
Source text: (§6) FIGS. 4A-4B. E11 is a specific inhibitor of Glut1. (a) Glut1 protein levels of DLD-1 wild type and knock out cells analyzed by western blotting. (b) Inhibition of 2-deoxy-D-[3H] glucose uptake in DLD-1 wild type and knock out cells by E11 or A18.
as §3

HEK293T = experiment: alamar blue assay, HEK293T; type: cell-based
Source text: (§7) Dose-dependent inhibition of cell proliferation by A18 and E11 was next evaluated in several other human cancer cell lines, including breast cancer HCC1954, pancreatic cancer PANC10.05, leukemia Jurkat T and colon cancer RKO (FIGS. 1b and 1c). […] (FIGS. 1 and 9; Table 3)
as §3

DLD-1 wild type = experiment: 2-deoxy-D-[3H] glucose uptake in DLD-1 wild type cells; type: cell-based
Source text: as §6, §3

IL2 = IL2 reporter / IL-2 production in Jurkat T cells; type: cell-based
Source text: as §4, §5

AMPK = experiment: Western blot, AMPK phosphorylation in HEK 293T; type: cell-based
Source text: as §1, §2

colon cancer RKO = experiment: alamar blue assay, RKO; type: cell-based, human
Source text: as §7

HEK 293T FLAG-Glut1 = experiment: alamar blue assay, HEK 293T Glut1 overexpression cells; type: cell-based; details: for IC50: HEK 293T FLAG-Glut1
Source text: FIGS. 20A-20C. E11 is a specific inhibitor of Glut1. (a) Glut1 and Glut3 protein levels of wild type, Glut1 and Glut3 overexpression cells analyzed by western blotting. (b)(c) Inhibition of cell proliferation in HEK293T, Glut1 and Glut3 overexpression cells by A18 and E11.
as §3

GLUT1 [3] = target: T1, GLUT1 (Homo sapiens, UniProt P11166); experiment: 3-O-methyl-D-[3H] glucose uptake in RBC-derived ghosts; type: cell-based
T1 construct: endogenous in cells; host or cells: erythrocyte (RBC-derived) ghosts
T1 sequence (P11166 1-492): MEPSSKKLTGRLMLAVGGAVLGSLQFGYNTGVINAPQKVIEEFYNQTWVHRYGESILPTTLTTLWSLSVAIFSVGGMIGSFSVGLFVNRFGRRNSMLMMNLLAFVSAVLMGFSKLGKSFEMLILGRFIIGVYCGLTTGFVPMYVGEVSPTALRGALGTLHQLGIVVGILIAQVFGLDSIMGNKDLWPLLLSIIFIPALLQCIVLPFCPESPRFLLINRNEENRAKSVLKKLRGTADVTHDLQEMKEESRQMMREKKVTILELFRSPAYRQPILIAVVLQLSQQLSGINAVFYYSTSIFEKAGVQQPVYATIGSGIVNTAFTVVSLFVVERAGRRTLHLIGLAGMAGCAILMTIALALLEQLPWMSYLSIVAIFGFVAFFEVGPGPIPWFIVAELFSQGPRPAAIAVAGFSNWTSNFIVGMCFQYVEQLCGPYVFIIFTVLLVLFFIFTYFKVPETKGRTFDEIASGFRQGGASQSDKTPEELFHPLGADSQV
Source text: (§8) FIGS. 3A-3D. Inhibition of Glucose Transport by A18 and E11. (a) Inhibition of 3-O-methyl-D-[3H] glucose uptake in human red blood cells by A18. (b) Inhibition of 3-O-methyl-D-[3H] glucose uptake in human red blood cells by E11. (c) Inhibition of 3-O-methyl-D-[3H] glucose uptake in erythrocyte ghosts by A18. (d) Inhibition of 3-O-methyl-D-[3H] glucose uptake in erythrocyte ghosts by E11.
(§9) A18 and E11 were previously shown to have a broad spectrum of anticancer activity. […] To test this hypothesis, red blood cells (RBCs) were applied as a cell model because RBCs express Glut1 as their sole glucose transporter and have been frequently used in studying glucose transport. […] To eliminate other possibilities, the glucose uptake assays were repeated in RBC-derived ghosts, in which all the intracellular proteins and enzymes were removed and only membrane-bound and membrane-associated proteins remained. […] (see FIGS. 2, 3 and 15-18)

GLUT1 [4] = target: T1, GLUT1; experiment: 3-O-methyl-D-[3H] glucose uptake in human red blood cells; type: cell-based; details: RBCs; read-out: IC50 3H-labeled 3-O-methylglucose uptake
Source text: as §8, §9

Molecule: CC[C@@H](C)[C@H]1C(=O)NCC(=O)N(C)CC/C=C/C(=O)OCC(C)(C)C(=O)C(=O)N2CCCC[C@H]2C(=O)O[C@H](CCc2ccc(OC)c(OC)c2)c2cccc(c2)NC(=O)CCC(=O)N(C)[C@@H](CC(C)C)C(=O)N[C@H](Cc2ccccc2)C(=O)N1C [A18]
- mTOR inhibition (S6K) (mTOR): mTOR inhibition
- inhibition of cell proliferation, alamar blue [1]: strongly inhibited
- NFAT reporter gene signal (NFAT): inhibit; also recorded: blocking
- inhibition of 2-deoxy-D-glucose uptake [2]: strongly inhibited
- IC50 (HEK293T; Homo sapiens, HEK-293T, HEK293T, Table 3): 110 nM
- IC50 (HEK293T; Homo sapiens, HEK-293T, HEK 293T, Table 4): 69 nM
- inhibition of 2-deoxy-D-glucose uptake (DLD-1 wild type): strongly inhibited
- IL-2 production (IL2): blocking
- phosphorylation of AMPK (AMPK): inducing phosphorylation of AMPK
- IC50 (colon cancer RKO; Homo sapiens): 114 nM
- IC50 (HEK 293T FLAG-Glut1; Homo sapiens): 573 nM
- IC50 (GLUT1 [3]): 49.5 nM
- IC50 (GLUT1 [4]): 34.2 nM

Molecule: Gly-^MSerBu-Nal-^MAla [E11]
- mTOR inhibition (S6K) (mTOR): mTOR inhibition
- inhibition of cell proliferation, alamar blue [1]: didn't show any inhibition
- NFAT reporter gene signal (NFAT): inhibit; also recorded: blocking
- inhibition of 2-deoxy-D-glucose uptake [2]: didn't show any inhibition
- IC50 (HEK293T; HEK293T, Table 3): 154 nM
- IC50 (HEK293T; HEK 293T, Table 4): 84.8 nM
- inhibition of 2-deoxy-D-glucose uptake (DLD-1 wild type): kept inhibitory activity
- IL-2 production (IL2): blocking
- IL2 pathway (IL2; Jurkat T cells): inhibits
- phosphorylation of AMPK (AMPK): inducing phosphorylation of AMPK
- IC50 (colon cancer RKO): 714 nM
- inhibition in alamar blue cell viability assay (HEK 293T FLAG-Glut1; GLUT1 overexpression HEK 293T cells): kept partial inhibitory activity
- IC50 (HEK 293T FLAG-Glut1): 658 nM
- IC50 glucose uptake (GLUT1 [3]): totally lost its inhibitory activity
- IC50 (GLUT1 [4]): 74.2 nM
